Laboratory results reported in US11110167B2 (priority 2011, dated 2021).

System: human peripheral blood mononuclear cells (PBMC)
Format: cell-based

| Substance | IL-1α and IL-1β mean gene expression upregulated [fold] | PPARg gene expression |
| --- | --- | --- |
| polyinosinic:polycytidylic acid [Poly(I:C)] | 4.1 | consistently downregulated |
| lipopolysaccharide [LPS] | 4.4 | consistently downregulated |
